The source of these data is patent US9849178B2, “Combination of carotenoids and epi-lutein” (Gupron GmbH, priority 2009, dated 2017).

Like-named read-outs stand apart in the source and are kept apart here.

A short description of data set [1]: Epi-lutein study: plasma levels after oral administration (gavage) for 7 consecutive days. The class given is in vivo, Rats, Sprague-Dawley. The following applies: for Cmax: day 7, rat plasma; for AUC / AUC(0-t): rat, plasma; for AUC: read-out: AUC0-τ; for AUC(0-t): read-out: AUC0-12 h; for AUC0-12 h (dose corrected) / AUC0-τ (dose corrected) / Cmax (dose corrected): dose corrected to 0.1 mg Lutein/kg BW. The procedure: [table] Study Design: Oral administration (gavage) of Treatment I for 7 consecutive days in 5 rats followed by a 14 days wash-out period and oral administration (gavage) of Treatment II for 7 consecutive days Blood Sampling: On day 7 of treatment prior to treatment and 15 min, 1, 3, 6, 9, 12 and 24 hours after treatment. About 400 μL blood were be transferred to Vacutainer tubes containing EDTA. Whole blood samples were centrifuged, as soon as possible from the designated time of collection, at 1200 g for approximately 10 minutes. All plasma samples (at least 200 μL) were be stored deep frozen at ≦−30° C., until shipping on dry ice. [table] Plasma Analysis: Lutein, Epilutein, Zeaxanthin and Oxidized metabolites

Data set [2] in a line: Pharmacokinetics of lutein and zeaxanthin with/without epi-lutein after intravenous administration. The class given is in vivo, wistar rats. As for the experimental part: 14 days wash-out period before this study
Subject: 3 wistar rats each group
Feeding type: intravenous administration
Group A: 4 mg lutein/Kg body weight
Group B: (2 mg lutein+2 mg epi-lutein)/Kg body weight
Group C: 4 mg zeaxanthin/Kg body weight
Group D: (2 mg zeaxanthin 2 mg epi-lutein)/Kg body weight
Blood sampling: 15, 30, 60 minutes, 3 and 6 hours after feeding

[3] abbreviates: Treatment II (mixture together with epi-lutein).

Usually Cmax stands for the maximum level reached in the sampled fluid or tissue. For the compound `CC1=C[C@@H](O)CC(C)(C)[C@H]1/C=C/C(C)=C/C=C/C(C)=C/C=C/C=C(C)/C=C/C=C(C)/C=C/C1=C(C)C[C@@H](O)CC1(C)C` [Epi-Lutein, (3R,3′S,6′R)-lutein], the AUC0-12 h in data set [1] (Treatment II (0.147 mg lutein + 0.135 mg epi-lutein/kg BW, oral gavage), day 7) is 3724 ng·h/mL. The Cmax in data set [1] (Treatment II (0.147 mg lutein + 0.135 mg epi-lutein/kg BW, oral gavage)) stood at 428 ng/mL. The AUC0-τ in data set [1] (Treatment II (0.147 mg lutein + 0.135 mg epi-lutein/kg BW, oral gavage), day 7, τ 24 hours) came to 6286 ng·h/mL.
As a reminder, the AUC(0-inf) is total exposure, with the tail of the curve extrapolated. Turning to `CC1=C[C@H](O)CC(C)(C)[C@H]1/C=C/C(C)=C/C=C/C(C)=C/C=C/C=C(C)/C=C/C=C(C)/C=C/C1=C(C)C[C@@H](O)CC1(C)C` [Lutein, (3R,3′R,6′R)-beta, epsilon-carotene-3,3′-diol], the “increase in the pharmacokinetic parameters of lutein, dose corrected” value in data set [1] (0.1 mg lutein/kg BW mixed with approximately 0.1 mg epi-lutein/kg BW vs single compound, time interval 0-12 hours) is given as “about 100%”. Also, the Cmax turned out to be 941 ng/mL in data set [1] (Sprague-Dawley, 0.282 mg/kg BW, Treatment I (0.282 mg lutein/kg BW, oral gavage), read-out: Cmax) and 939 ng/mL in data set [1] (Sprague-Dawley, Treatment II (0.147 mg lutein + 0.135 mg epi-lutein/kg BW, oral gavage), read-out: Cmax). The AUC in data set [1] (Sprague-Dawley, 0.282 mg/kg BW, Treatment I (0.282 mg lutein/kg BW, oral gavage), day 7, τ 24 hours) was found to be 18100 ng·h/mL; in data set [1] (Sprague-Dawley, Treatment II (0.147 mg lutein + 0.135 mg epi-lutein/kg BW, oral gavage), day 7, τ 24 hours) it was 14300 ng·h/mL. Besides, the AUC(0-t) in data set [1] (Sprague-Dawley, 0.282 mg/kg BW, Treatment I (0.282 mg lutein/kg BW, oral gavage), day 7) turned out to be 9780 ng·h/mL; in data set [1] (Sprague-Dawley, Treatment II (0.147 mg lutein + 0.135 mg epi-lutein/kg BW, oral gavage), day 7), 9340 ng·h/mL; in data set [2] (rat, 4 mg/kg, heading: AUC0-t, wistar rats, intravenous, A 4 mg lutein/Kg, B 2 mg lutein+2 mg epi-lutein/Kg, C 4 mg zeaxanthin/Kg, D 2 mg zeaxanthin+2 mg epi-lutein/Kg, lutein (A,B) or zeaxanthin (C,D) in plasma), 11700 ng·h/mL. Further, the “AUC0-12 h (dose corrected)” value in data set [1] (Treatment I (pure compound)) is listed as 3261 ng × h × ml^−1/0.1 mg Lut/kg B; in data set [1] (setting [3]), 6230 ng × h × ml^−1/0.1 mg Lut/kg B. Besides, the “AUC0-τ (dose corrected)” value is 6050 ng × h × ml^−1/0.1 mg Lut/kg B in data set [1] (Treatment I (pure compound)) and 9560 ng × h × ml^−1/0.1 mg Lut/kg B in data set [1] (setting [3]). The “Cmax (dose corrected)” value in data set [1] (Treatment I (pure compound)) is 314 [ng/ml]/0.1 mg Lut/kg BW; in data set [1] (setting [3]) it was 626 [ng/ml]/0.1 mg Lut/kg BW. In data set [2] (rat, 4 mg/kg, heading: AUC0-inf, wistar rats, intravenous, A 4 mg lutein/Kg, B 2 mg lutein+2 mg epi-lutein/Kg, C 4 mg zeaxanthin/Kg, D 2 mg zeaxanthin+2 mg epi-lutein/Kg, lutein (A,B) or zeaxanthin (C,D) in plasma), this compound had an AUC(0-inf) of 21300 ng·h/mL. Moreover, the half-life in data set [2] (rat, 4 mg/kg, wistar rats, intravenous, A 4 mg lutein/Kg, B 2 mg lutein+2 mg epi-lutein/Kg, C 4 mg zeaxanthin/Kg, D 2 mg zeaxanthin+2 mg epi-lutein/Kg, lutein (A,B) or zeaxanthin (C,D) in plasma, read-out: T½) was 5.08 h. Moreover, the “plasma half life after treatment with epi-lutein” value in data set [2] (wistar rats, intravenous, with vs without epi-lutein) is “substantially prolonged”.
For `CC1=C(/C=C/C(C)=C/C=C/C(C)=C/C=C/C=C(C)/C=C/C=C(C)/C=C/C2=C(C)C[C@@H](O)CC2(C)C)C(C)(C)C[C@H](O)C1` [Zeaxanthin, (3R,3′R)-beta, beta carotene-3,3′-diol], in data set [2] (rat, in vivo, iv), the T½ came to 5 h and the “plasma half life after treatment with epi-lutein” value is given as “substantially prolonged”.
